This note sets out measurements from US4051252A, “3-Aminoindazole-1 and 2-carboxylic acid derivatives” (Bayer Aktiengesellschaft, priority 1974, dated 1977).

The LD50 is the dose expected to kill half of the subjects tested. What is called ED50 is the midpoint of the dose-response relation. A high value points to a need for a large dose.

SMILES strings stand for the structures. Some results are limits rather than exact numbers.

The nature of series [1]: Acute Toxicity (oral, mouse). The conditions noted are these: in vivo. From the text: The pharmacological properties can be conveniently observed in recognized in vivo models.
The next series deals with tails of rats. The series can be described thus: Tail Flick Test (analgesic action). It is filed as in vivo. The conditions noted are these: Rattus norvegicus; oral, male rats; reaction time of 50% of animals lengthened to at least 20 seconds. An excerpt: Analgesic action can be observed in the tail flick test on the tails of rats in which the tail of male rats is irradiated with a focused heat ray. In this test, untreated animals react after an average irradiation time of 5.1±0.8 seconds (reaction time) by drawing away the tail. Under the influence of analgesically active compounds, this reaction time becomes longer. Active compounds which after administration prolong the reaction time of the animals to at least 20 seconds are considered to be analgesically active. Five animals are employed per dose. The ED50 is the dose which on average lengthens the reaction time of 50% of the animals employed to at least 20 seconds [see generally Wolff et al., J. Clin. Invest., 19, 659-680 (1940)].
(Hot-plate and tail-flick tests time the reaction to a heat stimulus.)

For series [2], the system named is rats. The series can be described thus: Phenylquinone Writhing Test (analgesic activity). Type of series: in vivo. The note with it: Rattus norvegicus, oral, 60 minutes before phenylquinone i.p., writhing reduced to half of control. The method, then:
Analgesic activity can also be observed in the phenylquinone writhing test in which 100 μg of phenylquinone, dissolved in 0.5 ml of 5% strength alcohol, are injected intraperitoneally into rats. A few minutes after administration, the animals show the characteristic writhing reaction, which consists of the animals showing extreme backward extension of the hind paws, flexing the back and lifting the tail. At the same time, wave-like contractions frequently pass over the abdominal muscles. The inhibition of this writhing syndrome is assessed to be an analgesic effect. The substance to be investigated is administered 30 minutes (in the case of subcutaneous administration) or 60 minutes (in the case of oral administration) before the injection of phenylquinone. Five animals are employed per compound and per dose. The ED50 is the dose at which the number of writhing reactions in the animals employed is on average reduced to half that of the control group [see generally: Siegmung et al., Proc. Soc. exp. Biol. Med. 95, 729-731 (1957)].

The test system of series [3] is rats. The series can be described thus: Yeast Antipyretic Test. Type of series: in vivo, rat. The note with it: oral, raised body temperature lowered by 1° C in 50% of animals. The procedure:
Antipyretic action can be observed in rats to which a beer yeast suspension has been administered subcutaneously. The body temperature is measured rectally before and 16 hours after administration of the beer years. The substance to be tested is administered orally to groups of 5 rats in which the body temperature has risen by at least 1° C. Thereafter, the temperature drop is measured rectally with a drop in the body temperature of at least 1° C being assessed as an antipyretic effet. The Ed50 is the dose at which, in 50% of the animals employed, the raised body temperature is lowered by 1° C upon administration of the active substance according to the invention.

The test system of a further series is paw of rats. The series can be described thus: Carrageenin Anti-inflammatory Test (carrageenin edema on the paw of rats). It is filed as in vivo, rat. The note with it: one hour before carrageenin, measured 2 1/2 and 3 hours after carrageenin; for ED50: Rattus norvegicus, po. The procedure:
The anti-inflammatory (antiphlogistic and anti-edematous) action of the compounds can be conveniently observed by the inhibition of carrageenin edema on the paw of rats. In this test, a reference measurement on the normal paws of rats is carried out half an hour before and half an hour after oral administration of the test compound, using an antiphlogmeter. One hour after administration of the substance, the edema is started by injecting a carrageenin solution into the planta pedis of one hind paw at 21/2 hours and 3 hours after the carrageenin injection, the effect on the edematous paw is measured. The relative paw volume is expressed as a percentage of the reference measurement (=100%). The ED50 is the dose at which, in 50% of the animals employed per dose, the difference between the relative paw volume of the treated animals and the relative paw volume of the 10 control groups is 100.
(In general: Carrageenan injected into the paw causes an acute inflammation.)

For `Nc1n[nH]c2ccc(C(F)(F)F)cc12` [3-amino-5-trifluoromethylindazole, reference compound], the 50% lethal dose (LD50) in series [1] was determined as 228 mg/kg. Further, the median effective dose (ED50) was 67 mg/kg in the series with tails of rats, 61 mg/kg in the series with rats [2] and 48 mg/kg with rats [3].

In series [1], `CCOC(=O)n1nc(N)c2cc(C(F)(F)F)ccc21` [3-amino-5-trifluoromethylindazole-1-carboxylic acid ethyl ester] gave an LD50 greater than 5000 mg/kg. In the series on rats [2], this molecule showed a 50% effective dose (ED50) of 1 mg/kg.

Consider `CCNC(=O)n1nc(N)c2cc(C(F)(F)F)ccc21` [3-amino-5-trifluoromethylindazole-1-carboxylic acid ethylamide], for which the LD50 in series [1] was greater than 1000 mg/kg. The median effective dose (ED50) with tails of rats was 53 mg/kg; with rats [3], 51 mg/kg.

For the molecule `COC(=O)n1nc(N)c2cc(C(F)(F)F)ccc21` [3-amino-5-trifluoromethylindazole-1-carboxylic acid methyl ester], the 50% effective dose (ED50) with tails of rats was 41 mg/kg; in the series on rats [3] it was roughly 50 mg/kg.

In the case of `CCOC(=O)n1nc(N)c2ccc(Cl)cc21` [3-amino-6-chloroindazole-1-carboxylic acid ethyl ester], in series [1], the 50% lethal dose (LD50) was roughly 2000 mg/kg. In addition, in the series on paw of rats, the ED50 was roughly 77 mg/kg and the “ED50 (oral), Carrageenin Anti-inflammatory Test” value was 68 (44-138) mg/kg.

`COC(=O)n1nc(N)c2ccc(Cl)cc21` [3-amino-6-chloroindazole-1-carboxylic acid methyl ester] registered an LD50 in series [1] greater than 1000 mg/kg. Also, the 50% effective dose (ED50) in the series on tails of rats is 30 mg/kg; in the series on rats [2], roughly 10 mg/kg; with paw of rats it was roughly 40 mg/kg; with rats [3], roughly 20 mg/kg.

On to `CCCCOC(=O)n1nc(N)c2ccc(Cl)cc21` [3-amino-6-chloroindazole-1-carboxylic acid n-butyl ester], for which the 50% lethal dose (LD50) in series [1] is greater than 1000 mg/kg. Also, in the series on paw of rats, it took a dose of 67 mg/kg to reach the 50% effect level (ED50).

Take `CN(C)C(=O)n1nc(N)c2ccc(Cl)cc21` [3-amino-6-chloroindazole-1-carboxylic acid-dimethylamide]: in series [1], the LD50 was greater than 1000 mg/kg. The molecule also showed an ED50 in the series on rats [3] of 41 mg/kg.

On to `CN(C)C(=O)n1nc2cc(Cl)ccc2c1N` [3-amino-6-chloroindazole-2-carboxylic acid dimethylamide], for which the 50% effective dose (ED50) in the series on rats [2] is 17 mg/kg; with rats [3], 23 mg/kg.

Take `CCOC(=O)n1nc(N)c2ccc(C(F)(F)F)cc21` [3-amino-6-trifluoromethylindazole-1-carboxylic acid ethyl ester]: the median effective dose (ED50) in the series with tails of rats was 53 mg/kg; with rats [3], roughly 50 mg/kg.

With `CCOC(=O)n1nc(N)c2ccccc21` [3-aminoindazole-1-carboxylic acid ethyl ester], in series [1], the LD50 is roughly 3000 mg/kg. The molecule further gave a median effective dose (ED50) with paw of rats of roughly 47 mg/kg.

Molecule `CCOC(=O)n1nc(N(C)C)c2ccc(Cl)cc21` [3-dimethylamino-6-chloroindazole-1-carboxylic acid ethyl ester] displayed a median lethal dose (LD50) in series [1] greater than 5000 mg/kg. The 50% effective dose (ED50) in the series with rats [2] was 17 mg/kg; in the series with rats [3], 5.2 mg/kg.

Regarding `CN(C)C(=O)n1nc(NC=O)c2ccc(C(F)(F)F)cc21` [3-formylamino-6-trifluoromethyl-1-carboxylic acid dimethylamide], in the series with paw of rats, the “ED50 (oral), Carrageenin Anti-inflammatory Test” value is 92 (44-216) mg/kg.

`CN(C)C(=O)n1nc(NC=O)c2cc(C(F)(F)F)ccc21` [3formylamino-5-trifluoromethylindazole-1-carboxylic acid dimethylamide]: in series [1], the 50% lethal dose (LD50) was greater than 1000 mg/kg. In addition, the ED50 with rats [3] turned out to be 14 mg/kg.
